Measurements taken from paper PMC10707724, “Dual Effects of 3-epi-betulin from Daphniphyllum glaucescens in Suppressing SARS-CoV-2-Induced Inflammation and Inhibiting Virus Entry” (International Journal of Molecular Sciences, 2023).

What was measured:
spike protein = conditions: cited from earlier work
[1] = tested on: pro-inflammatory genes (IL1B, IL6) in differentiated THP-1 cells; format: cell-based
SARS-CoV-2 replicon = assay: microbe, parasite or virus in culture; format: cell-based; conditions: Severe acute respiratory syndrome coronavirus 2, HEK-293T, read-out: EC50, replication of SARS-CoV-2 replicon (luciferase activity)
[2] = tested on: pro-inflammatory genes, IL6 and TNF, in Calu-3 cells; format: cell-based
[3] = tested on: SARS-CoV-2 (hCoV-19/Taiwan/NTU49/2020); format: cell-based; conditions: Calu-3, 10 μM for 24 h after infection
[4] = tested on: SARS-CoV-2 (hCoV-19/Taiwan/NTU49/2020); assay: microbe, parasite or virus in culture; format: cell-based
[5] = tested on: wild-type SARS-CoV-2 pseudovirus SEMpv; assay: microbe, parasite or virus in culture; format: cell-based; conditions: Severe acute respiratory syndrome-related coronavirus, BHK-ACE2, 48 h, read-out: EC50, pseudovirus entry
[6] = tested on: wild-type SARS-CoV-2 pseudovirus Spv; assay: microbe, parasite or virus in culture; format: cell-based; conditions: Severe acute respiratory syndrome-related coronavirus, BHK-ACE2, 48 h, read-out: EC50, pseudovirus entry
VSV-pseudovirus (Gpv) = format: cell-based
[7] = tested on: SARS-CoV-2 Alpha (B.1.1.7); assay: microbe, parasite or virus in culture; format: cell-based; conditions: Severe acute respiratory syndrome coronavirus 2, Vero C1008, Alpha (B.1.1.7)
[8] = tested on: SARS-CoV-2 Eplison (B.1.429); assay: microbe, parasite or virus in culture; format: cell-based; conditions: Severe acute respiratory syndrome coronavirus 2, Vero C1008, Eplison (B.1.429)
SARS-CoV-2 Gamma (P1) = assay: microbe, parasite or virus in culture; format: cell-based; conditions: Severe acute respiratory syndrome coronavirus 2, Vero C1008, Gamma (P1)
[9] = tested on: SARS-CoV-2 Delta (B.1.617.2); assay: microbe, parasite or virus in culture; format: cell-based; conditions: Severe acute respiratory syndrome coronavirus 2, Vero C1008, Delta (B.1.617.2)
[10] = tested on: SARS-CoV-2 Omicron (BA.1); assay: microbe, parasite or virus in culture; format: cell-based; conditions: Severe acute respiratory syndrome coronavirus 2, Vero C1008
SARS-CoV-2 pseudoviruses = format: cell-based; conditions: pseudovirus pre-treated with compound 37 °C 1 h, BHK-ACE2 48 h, luciferase
BHK-ACE2 cells = conditions: BHK-ACE2, 48 h, MTS
[11] = tested on: SARS-CoV-2 virus spike binding to ACE2; conditions: by computational screening; cited from earlier work
[12] = compound given after pseudovirus infection, 16 h (time-of-addition study)

C=C(C)[C@@H]1CC[C@]2(CO)CC[C@]3(C)[C@H](CC[C@@H]4[C@@]5(C)CC[C@H](O)C(C)(C)[C@@H]5CC[C@]43C)[C@@H]12 [Compound 7, Betulin]
ability to bind to the spike protein (spike protein): ability to bind to the spike protein

C=C(C)[C@@H]1CC[C@]2(CO)CC[C@]3(C)[C@H](CC[C@@H]4[C@@]5(C)CC[C@@H](O)C(C)(C)[C@@H]5CC[C@]43C)[C@@H]12 [Compound 5, 3-epi-Betulin]
decrease in IL1B expression [1, 12]: 69.5% | decrease in IL6 expression [1, 12]: 82.9% | expression of pro-inflammatory genes, pre-inoculation ([1]; compound mixed with pseudovirus 1 h before infecting differentiated THP-1 cells): remained unchanged | expression of pro-inflammatory genes, pre-treatment ([1]; compound on differentiated THP-1 cells 1 h before pseudovirus infection): remained unchanged | IL1B RNA level decrease ([1]; differentiated THP-1 infected with SEMpv, then compound for 16 h): 47.3% | EC50 (SARS-CoV-2 replicon): 11.7 ± 0.4 µM | IL6 expression decrease [2]: 66.6% | TNF expression decrease [2]: 46.0% | minus-stranded viral RNA decrease [3]: 51.7% | plus-stranded viral RNA reduction [3]: 73.8% | culture supernatant viral load decrease ([3]; RT-qPCR): 61.4% | plaque formation decline ([3]; plaque assay of supernatant): 51.5% | EC50 ([4]; Severe acute respiratory syndrome coronavirus 2, Calu-3 lung epithelial cells, read-out: EC50, SARS-CoV-2 infection): < 20 µM | intracellular viral RNA decrease ([4]; virus pre-incubated with 20 μM, Calu-3, 24 h): 45.6% | infectious virus titer decrease ([4]; virus pre-incubated with 20 μM, Calu-3, 24 h, plaque assay): 66.3% | EC50 [5]: 14.6 µM | EC50 [6]: 16.3 µM | inhibitory activity against control VSV-pseudovirus (VSV-pseudovirus (Gpv)): no inhibitory activity | EC50 [7]: 10.3 µM | EC50 [8]: 12.9 µM | EC50 (SARS-CoV-2 Gamma (P1)): 3.27 µM | EC50 [9]: 3.09 µM | EC50 [10]: 14.5 ± 3.9 µM | inhibitory activity for virus entry (SARS-CoV-2 pseudoviruses): highest inhibitory activity | cytotoxicity (BHK-ACE2 cells): no cytotoxicity

C=C(C)[C@@H]1CC[C@]2(C(=O)O)CC[C@]3(C)[C@H](CC[C@@H]4[C@@]5(C)CC[C@H](O)C(C)(C)[C@@H]5CC[C@]43C)[C@@H]12 [Betulinic acid]
inhibition of spike binding to ACE2 through the RBD domain [11]: inhibit SARS-CoV-2 virus spike binding to ACE2
